Reference: article PMC4508061, “Selectivity Profiling and Biological Activity of Novel β-Carbolines as Potent and Selective DYRK1 Kinase Inhibitors” (PLoS ONE, 2015)

Assays:
HIPK2 = HIPK2 (Homo sapiens, UniProt Q9H2X6); assay: Kinase-GLO luminescent kinase assay; assay type: biochemical; set-up: made in house; host or cells: E. coli; conditions: 10 μM compound; means of at least 3 measurements
In short: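 E. coli-expressed GST fusions (DYRK1A-ΔC, DYRK1B and HIPK2 catalytic domains, DYRK2) assayed in 25 mM Hepes pH 7.4, 5 mM MgCl2, 5 μM ATP with DYRKtide (20 μM for DYRKs, 100 μM for HIPK2). Kinase dosed to consume ~90% ATP; 30 min at room temperature, remaining ATP read by Kinase-GLO luminescence.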

AKT3 = AKT3 (Homo sapiens, UniProt Q9Y243); assay: ProQinase radiometric kinase panel; conditions: mean of 2 exp.
BRSK1 = BRSK1 (Homo sapiens, UniProt Q8TDC3); assay: ProQinase radiometric kinase panel; conditions: mean of 2 exp.
CAMK2D = CAMK2D (Homo sapiens, UniProt Q13557); assay: ProQinase radiometric kinase panel; conditions: mean of 2 exp.
CDK2/CycA2 = CDK2/CycA2 (Homo sapiens, UniProt P24941); assay: ProQinase radiometric kinase panel; conditions: mean of 2 exp.
CK1-alpha1 = CK1-alpha1 (Homo sapiens, UniProt P48729); assay: ProQinase radiometric kinase panel; conditions: mean of 2 exp.
DMPK = DMPK (Homo sapiens, UniProt Q09013); assay: ProQinase radiometric kinase panel; conditions: mean of 2 exp.
Chain of DMPK (Q09013 whole entry): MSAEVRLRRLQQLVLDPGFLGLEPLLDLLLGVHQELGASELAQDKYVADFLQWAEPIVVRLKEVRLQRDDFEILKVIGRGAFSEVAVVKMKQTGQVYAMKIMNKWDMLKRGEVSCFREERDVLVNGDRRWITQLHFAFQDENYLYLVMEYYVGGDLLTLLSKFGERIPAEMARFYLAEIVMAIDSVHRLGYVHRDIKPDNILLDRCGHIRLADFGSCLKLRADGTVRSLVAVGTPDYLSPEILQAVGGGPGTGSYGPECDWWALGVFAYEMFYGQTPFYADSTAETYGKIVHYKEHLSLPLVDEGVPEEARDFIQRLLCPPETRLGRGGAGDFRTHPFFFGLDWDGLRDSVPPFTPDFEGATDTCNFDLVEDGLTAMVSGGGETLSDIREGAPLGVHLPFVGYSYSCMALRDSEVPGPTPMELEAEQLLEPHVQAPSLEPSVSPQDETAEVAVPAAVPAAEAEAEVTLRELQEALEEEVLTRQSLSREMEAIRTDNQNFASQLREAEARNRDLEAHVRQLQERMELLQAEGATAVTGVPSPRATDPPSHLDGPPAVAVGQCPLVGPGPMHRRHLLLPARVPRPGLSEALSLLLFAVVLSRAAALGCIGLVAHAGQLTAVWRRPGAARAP

EIF2AK3 = EIF2AK3 (Homo sapiens, UniProt Q9NZJ5); assay: ProQinase radiometric kinase panel; conditions: mean of 2 exp.
Chain of EIF2AK3 (Q9NZJ5 30-1116): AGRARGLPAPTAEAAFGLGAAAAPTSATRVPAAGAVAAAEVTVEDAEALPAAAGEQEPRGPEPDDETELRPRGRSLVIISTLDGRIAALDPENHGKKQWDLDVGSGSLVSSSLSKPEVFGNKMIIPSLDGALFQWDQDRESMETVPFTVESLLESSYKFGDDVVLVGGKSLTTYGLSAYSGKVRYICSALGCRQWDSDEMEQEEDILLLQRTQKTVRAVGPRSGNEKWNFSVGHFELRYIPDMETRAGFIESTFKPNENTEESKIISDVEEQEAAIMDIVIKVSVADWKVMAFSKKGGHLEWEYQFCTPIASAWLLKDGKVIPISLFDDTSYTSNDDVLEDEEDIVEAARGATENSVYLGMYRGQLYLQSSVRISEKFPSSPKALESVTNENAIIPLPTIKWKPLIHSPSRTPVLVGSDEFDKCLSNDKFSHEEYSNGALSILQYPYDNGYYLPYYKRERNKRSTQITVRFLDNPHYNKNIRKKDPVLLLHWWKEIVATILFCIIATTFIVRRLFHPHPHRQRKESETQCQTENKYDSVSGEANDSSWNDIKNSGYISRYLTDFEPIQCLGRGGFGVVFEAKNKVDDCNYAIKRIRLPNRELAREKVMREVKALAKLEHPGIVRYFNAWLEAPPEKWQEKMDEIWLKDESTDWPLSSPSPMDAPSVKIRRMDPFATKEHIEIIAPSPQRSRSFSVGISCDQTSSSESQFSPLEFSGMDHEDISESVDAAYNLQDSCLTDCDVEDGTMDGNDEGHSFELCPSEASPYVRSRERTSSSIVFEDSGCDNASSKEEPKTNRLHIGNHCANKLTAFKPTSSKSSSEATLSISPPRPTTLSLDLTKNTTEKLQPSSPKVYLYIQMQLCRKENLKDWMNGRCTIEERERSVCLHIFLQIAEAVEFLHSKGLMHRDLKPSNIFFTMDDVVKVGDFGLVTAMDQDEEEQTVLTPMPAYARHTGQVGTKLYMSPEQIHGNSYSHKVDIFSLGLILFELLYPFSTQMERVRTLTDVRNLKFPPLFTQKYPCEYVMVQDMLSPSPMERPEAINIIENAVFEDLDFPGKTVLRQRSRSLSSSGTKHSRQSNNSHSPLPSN

EPHB2 = EPHB2 (Homo sapiens, UniProt P29323); assay: ProQinase radiometric kinase panel; conditions: mean of 2 exp.
FGF-R2 = FGF-R2 (Homo sapiens, UniProt P21802); assay: ProQinase radiometric kinase panel; conditions: mean of 2 exp.
GRK5 = GRK5 (Homo sapiens, UniProt P34947); assay: ProQinase radiometric kinase panel; conditions: mean of 2 exp.
HIPK1 = HIPK1 (Homo sapiens, UniProt Q86Z02); assay: ProQinase radiometric kinase panel; conditions: mean of 2 exp.
IKK-alpha = IKK-alpha (Homo sapiens, UniProt O15111); assay: ProQinase radiometric kinase panel; conditions: mean of 2 exp.
Chain of IKK-alpha (O15111 whole entry): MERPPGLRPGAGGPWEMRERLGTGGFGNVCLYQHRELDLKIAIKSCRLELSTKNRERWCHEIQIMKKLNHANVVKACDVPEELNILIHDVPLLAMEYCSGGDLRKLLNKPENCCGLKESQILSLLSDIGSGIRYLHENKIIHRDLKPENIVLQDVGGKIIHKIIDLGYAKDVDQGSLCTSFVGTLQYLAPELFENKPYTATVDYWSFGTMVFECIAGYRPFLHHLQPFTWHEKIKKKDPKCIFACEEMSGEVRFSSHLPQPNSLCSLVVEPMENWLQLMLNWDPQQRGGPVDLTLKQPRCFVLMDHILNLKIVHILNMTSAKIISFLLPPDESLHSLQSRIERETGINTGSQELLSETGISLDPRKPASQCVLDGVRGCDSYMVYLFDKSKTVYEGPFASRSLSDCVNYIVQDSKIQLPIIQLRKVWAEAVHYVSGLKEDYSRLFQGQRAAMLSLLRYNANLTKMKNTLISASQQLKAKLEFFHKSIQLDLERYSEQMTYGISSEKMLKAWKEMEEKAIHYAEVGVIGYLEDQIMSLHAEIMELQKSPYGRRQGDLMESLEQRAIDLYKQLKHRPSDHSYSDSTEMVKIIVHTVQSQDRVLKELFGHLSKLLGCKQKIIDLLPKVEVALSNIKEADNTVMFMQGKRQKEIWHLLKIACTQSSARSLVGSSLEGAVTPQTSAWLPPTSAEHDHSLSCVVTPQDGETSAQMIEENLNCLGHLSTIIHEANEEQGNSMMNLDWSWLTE

IKK-beta = IKK-beta (Homo sapiens, UniProt O14920); assay: ProQinase radiometric kinase panel; conditions: mean of 2 exp.
JNK1 = JNK1 (Homo sapiens, UniProt P45983); assay: ProQinase radiometric kinase panel; conditions: mean of 2 exp.
JNK2 = JNK2 (Homo sapiens, UniProt P45984); assay: ProQinase radiometric kinase panel; conditions: mean of 2 exp.
Method: Gini coefficients were calculated and the Lorenz curve (Fig 3B) was plotted by applying the Microsoft Excel spreadsheet provided by Graczyk [44].
radiometric protein kinase assays.

LRRK2 = LRRK2 (Homo sapiens, UniProt Q5S007); assay: ProQinase radiometric kinase panel; conditions: mean of 2 exp.
MAP4K5 = MAP4K5 (Homo sapiens, UniProt Q9Y4K4); assay: ProQinase radiometric kinase panel; conditions: mean of 2 exp.
MUSK = MUSK (Homo sapiens, UniProt O15146); assay: ProQinase radiometric kinase panel; conditions: mean of 2 exp.
MYLK2 = MYLK2 (Homo sapiens, UniProt Q9H1R3); assay: ProQinase radiometric kinase panel; conditions: mean of 2 exp.
Chain of MYLK2 (Q9H1R3 whole entry): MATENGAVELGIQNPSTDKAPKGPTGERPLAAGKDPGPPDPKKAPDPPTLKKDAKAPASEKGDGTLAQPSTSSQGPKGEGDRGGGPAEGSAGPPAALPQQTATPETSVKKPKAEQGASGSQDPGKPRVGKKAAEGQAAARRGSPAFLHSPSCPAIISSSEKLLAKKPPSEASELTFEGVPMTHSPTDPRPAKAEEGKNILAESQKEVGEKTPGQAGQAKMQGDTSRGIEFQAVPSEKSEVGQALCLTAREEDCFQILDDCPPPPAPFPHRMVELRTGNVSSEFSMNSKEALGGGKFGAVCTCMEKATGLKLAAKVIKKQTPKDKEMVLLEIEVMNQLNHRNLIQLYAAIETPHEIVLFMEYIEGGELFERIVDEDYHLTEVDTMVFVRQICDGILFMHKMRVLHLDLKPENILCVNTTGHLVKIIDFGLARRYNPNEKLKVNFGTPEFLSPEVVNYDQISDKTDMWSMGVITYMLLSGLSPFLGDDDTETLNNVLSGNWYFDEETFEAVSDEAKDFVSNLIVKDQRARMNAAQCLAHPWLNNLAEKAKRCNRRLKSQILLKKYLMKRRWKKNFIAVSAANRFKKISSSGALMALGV

NIK = NIK (Homo sapiens, UniProt Q99558); assay: ProQinase radiometric kinase panel; conditions: mean of 2 exp.
PAK7 = PAK7 (Homo sapiens, UniProt Q9P286); assay: ProQinase radiometric kinase panel; conditions: mean of 2 exp.
PDGFR-beta = PDGFR-beta (Homo sapiens, UniProt P09619); assay: ProQinase radiometric kinase panel; conditions: mean of 2 exp.
PKC-beta2 = PKC-beta2 (Homo sapiens, UniProt P05771); assay: ProQinase radiometric kinase panel; conditions: mean of 2 exp.
PYK2 = PYK2 (Homo sapiens, UniProt Q14289); assay: ProQinase radiometric kinase panel; conditions: mean of 2 exp.
Chain of PYK2 (Q14289 whole entry): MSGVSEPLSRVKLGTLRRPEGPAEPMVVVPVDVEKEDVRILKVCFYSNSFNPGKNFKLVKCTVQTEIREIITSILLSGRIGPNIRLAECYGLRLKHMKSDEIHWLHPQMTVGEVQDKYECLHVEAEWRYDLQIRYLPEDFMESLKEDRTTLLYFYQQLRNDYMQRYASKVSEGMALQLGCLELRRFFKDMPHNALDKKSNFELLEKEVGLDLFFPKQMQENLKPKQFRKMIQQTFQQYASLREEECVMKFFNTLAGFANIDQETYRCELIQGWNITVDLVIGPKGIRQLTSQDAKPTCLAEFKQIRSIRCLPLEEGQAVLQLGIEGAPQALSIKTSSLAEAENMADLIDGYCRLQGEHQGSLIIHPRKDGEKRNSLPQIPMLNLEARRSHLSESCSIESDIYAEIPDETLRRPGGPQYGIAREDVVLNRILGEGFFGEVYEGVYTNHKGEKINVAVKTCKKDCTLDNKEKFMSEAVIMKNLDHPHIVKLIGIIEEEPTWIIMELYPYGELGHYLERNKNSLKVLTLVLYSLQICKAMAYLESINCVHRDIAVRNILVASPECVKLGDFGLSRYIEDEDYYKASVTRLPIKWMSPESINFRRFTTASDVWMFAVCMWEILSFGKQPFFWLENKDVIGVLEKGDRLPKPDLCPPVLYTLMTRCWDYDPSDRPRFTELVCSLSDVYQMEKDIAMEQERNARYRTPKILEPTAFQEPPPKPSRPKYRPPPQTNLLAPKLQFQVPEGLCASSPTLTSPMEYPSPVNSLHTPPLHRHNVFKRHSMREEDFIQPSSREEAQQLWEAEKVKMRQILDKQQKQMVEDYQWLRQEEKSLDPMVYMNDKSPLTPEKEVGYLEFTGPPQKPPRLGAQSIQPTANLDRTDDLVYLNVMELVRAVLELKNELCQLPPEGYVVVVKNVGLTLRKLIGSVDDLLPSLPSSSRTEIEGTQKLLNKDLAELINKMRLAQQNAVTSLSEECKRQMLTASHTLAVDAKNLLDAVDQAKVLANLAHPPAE

S6K = S6K (Homo sapiens, UniProt P23443); assay: ProQinase radiometric kinase panel; conditions: mean of 2 exp.
Chain of S6K (P23443 whole entry): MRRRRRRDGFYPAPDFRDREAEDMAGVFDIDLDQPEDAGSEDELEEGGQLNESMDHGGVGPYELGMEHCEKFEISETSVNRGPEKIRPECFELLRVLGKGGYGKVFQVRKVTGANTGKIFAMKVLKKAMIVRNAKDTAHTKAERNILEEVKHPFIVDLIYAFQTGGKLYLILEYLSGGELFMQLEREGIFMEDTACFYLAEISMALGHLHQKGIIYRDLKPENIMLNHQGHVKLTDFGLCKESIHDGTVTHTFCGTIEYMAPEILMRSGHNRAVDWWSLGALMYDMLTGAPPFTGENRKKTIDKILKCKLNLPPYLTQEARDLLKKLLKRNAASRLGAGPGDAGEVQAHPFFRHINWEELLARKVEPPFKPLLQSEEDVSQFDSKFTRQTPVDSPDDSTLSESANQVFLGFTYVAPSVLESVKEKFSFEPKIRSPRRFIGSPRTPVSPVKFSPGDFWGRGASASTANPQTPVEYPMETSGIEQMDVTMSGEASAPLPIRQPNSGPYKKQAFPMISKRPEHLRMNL

TAOK3 = TAOK3 (Homo sapiens, UniProt Q9H2K8); assay: ProQinase radiometric kinase panel; conditions: mean of 2 exp.
TSF1 = TSF1 (Homo sapiens, UniProt O75716); assay: ProQinase radiometric kinase panel; conditions: mean of 2 exp.
Chain of TSF1 (O75716 whole entry): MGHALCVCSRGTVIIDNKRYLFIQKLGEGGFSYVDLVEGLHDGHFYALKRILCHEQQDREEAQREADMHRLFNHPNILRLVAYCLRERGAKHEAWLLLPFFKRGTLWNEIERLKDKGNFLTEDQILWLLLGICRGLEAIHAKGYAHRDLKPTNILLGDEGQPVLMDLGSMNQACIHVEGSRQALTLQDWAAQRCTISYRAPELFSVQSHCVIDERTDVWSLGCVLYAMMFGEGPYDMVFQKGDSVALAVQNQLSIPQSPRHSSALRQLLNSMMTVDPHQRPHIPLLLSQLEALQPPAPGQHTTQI

TSK2 = TSK2 (Homo sapiens, UniProt Q96PF2); assay: ProQinase radiometric kinase panel; conditions: mean of 2 exp.
TSSK1 = TSSK1 (Homo sapiens, UniProt Q9BXA7); assay: ProQinase radiometric kinase panel; conditions: mean of 2 exp.
TYK2 = TYK2 (Homo sapiens, UniProt P29597); assay: ProQinase radiometric kinase panel; conditions: mean of 2 exp.
YES = YES (Homo sapiens, UniProt P07947); assay: ProQinase radiometric kinase panel; conditions: mean of 2 exp.

Structure (SMILES): COc1ccc2c3ccnc(Cl)c3n(CC#N)c2c1 [AnnH75]
- Residual activity (% of control) HIPK2 (HIPK2): 85 % of control
- residual activity at 1 µM, Mean (AKT3): 104 % of control
- residual activity at 1 µM, Mean (BRSK1): 107 % of control
- residual activity at 1 µM, Mean (CAMK2D): 87 % of control
- residual activity at 1 µM, Mean (CDK2/CycA2): 88 % of control
- residual activity at 1 µM, Mean (CK1-alpha1): 90 % of control
- residual activity at 1 µM, Mean (DMPK): 101 % of control
- residual activity at 1 µM, Mean (EIF2AK3): 99 % of control
- residual activity at 1 µM, Mean (EPHB2): 99 % of control
- residual activity at 1 µM, Mean (FGF-R2): 85 % of control
- residual activity at 1 µM, Mean (GRK5): 95 % of control
- residual activity at 1 µM, Mean (HIPK1): 91 % of control
- residual activity at 1 µM, Mean (IKK-alpha): 60 % of control
- residual activity at 1 µM, Mean (IKK-beta): 91 % of control
- residual activity at 1 µM, Mean (JNK1): 99 % of control
- residual activity at 1 µM, Mean (JNK2): 100 % of control
- residual activity at 1 µM, Mean (LRRK2): 83 % of control
- residual activity at 1 µM, Mean (MAP4K5): 84 % of control
- residual activity at 1 µM, Mean (MUSK): 101 % of control
- residual activity at 1 µM, Mean (MYLK2): 90 % of control
- residual activity at 1 µM, Mean (NIK): 87 % of control
- residual activity at 1 µM, Mean (PAK7): 90 % of control
- residual activity at 1 µM, Mean (PDGFR-beta): 88 % of control
- residual activity at 1 µM, Mean (PKC-beta2): 108 % of control
- residual activity at 1 µM, Mean (PYK2): 110 % of control
- residual activity at 1 µM, Mean (S6K): 85 % of control
- residual activity at 1 µM, Mean (TAOK3): 103 % of control
- residual activity at 1 µM, Mean (TSF1): 97 % of control
- residual activity at 1 µM, Mean (TSK2): 92 % of control
- residual activity at 1 µM, Mean (TSSK1): 85 % of control
- residual activity at 1 µM, Mean (TYK2): 96 % of control
- residual activity at 1 µM, Mean (YES): 83 % of control
